Reference: PubChem BioAssay (NCI)
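Protocol summary: plate cells (96-well), add compound at 5 concentrations, incubate 48 h, interpolate endpoints linearly. At the TGI there is no net growth.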

Tests used:
Experiment in all cases: inhibition of tumour cell growth, NCI panel, 48 h
IGROV1 ovarian = system: IGROV1 ovarian
OVCAR-3 ovarian = system: OVCAR-3 ovarian
HCT-116 colon = system: HCT-116 colon
SW-620 colon = system: SW-620 colon
HCC-2998 colon = system: HCC-2998 colon
KM12 colon = system: KM12 colon
CAKI-1 renal = system: CAKI-1 renal
786-0 renal = system: 786-0 renal
K-562 leukemia = system: K-562 leukemia
MOLT-4 leukemia = system: MOLT-4 leukemia
EKVX NSCLC = system: EKVX NSCLC
M14 melanoma = system: M14 melanoma
HCT-15 colon = system: HCT-15 colon
DMS 273 small cell lung = system: DMS 273 small cell lung
SK-MEL-5 melanoma = system: SK-MEL-5 melanoma
COLO 205 colon = system: COLO 205 colon
SR leukemia = system: SR leukemia
DMS 114 small cell lung = system: DMS 114 small cell lung
SNB-19 CNS = system: SNB-19 CNS
A549 NSCLC = system: A549 NSCLC
U251 CNS = system: U251 CNS
DLD-1 colon = system: DLD-1 colon
OVCAR-5 ovarian = system: OVCAR-5 ovarian
SF-539 CNS = system: SF-539 CNS
RPMI-8226 leukemia = system: RPMI-8226 leukemia
NCI-H226 lung = system: NCI-H226 lung
A498 renal = system: A498 renal
OVCAR-8 ovarian = system: OVCAR-8 ovarian
SK-MEL-2 melanoma = system: SK-MEL-2 melanoma
SF-268 CNS = system: SF-268 CNS
SK-OV-3 ovarian = system: SK-OV-3 ovarian
TK-10 renal = system: TK-10 renal
HT29 colon = system: HT29 colon
SF-295 CNS = system: SF-295 CNS
MALME-3M melanoma = system: MALME-3M melanoma
SNB-75 CNS = system: SNB-75 CNS
HL-60(TB) leukemia = system: HL-60(TB) leukemia
UO-31 renal = system: UO-31 renal
NCI-H460 lung = system: NCI-H460 lung
LOX IMVI melanoma = system: LOX IMVI melanoma
SN12C renal = system: SN12C renal
UACC-62 melanoma = system: UACC-62 melanoma
RXF 393 renal = system: RXF 393 renal
OVCAR-4 ovarian = system: OVCAR-4 ovarian
HOP-18 NSCLC = system: HOP-18 NSCLC
UACC-257 melanoma = system: UACC-257 melanoma
CCRF-CEM leukemia = system: CCRF-CEM leukemia
KM20L2 colon = system: KM20L2 colon
NCI-H23 lung = system: NCI-H23 lung
HOP-92 NSCLC = system: HOP-92 NSCLC
SNB-78 CNS = system: SNB-78 CNS
M19-MEL melanoma = system: M19-MEL melanoma
NCI-H522 lung = system: NCI-H522 lung
HOP-62 NSCLC = system: HOP-62 NSCLC
LXFL 529 NSCLC = system: LXFL 529 NSCLC
SK-MEL-28 melanoma = system: SK-MEL-28 melanoma
ACHN renal = system: ACHN renal
XF 498 CNS = system: XF 498 CNS

Compound: Cc1c(/C=N/N=C/c2[nH]c(C(=O)OC(C)(C)C)c(C)c2C)[nH]c(C(=O)OC(C)(C)C)c1C
- TGI (IGROV1 ovarian): > 100 µM
- TGI (OVCAR-3 ovarian): > 100 µM
- TGI (HCT-116 colon): > 100 µM
- TGI (SW-620 colon): > 100 µM
- TGI (HCC-2998 colon): > 100 µM
- TGI (KM12 colon): > 100 µM
- TGI (CAKI-1 renal): > 100 µM
- TGI (786-0 renal): > 100 µM
- TGI (K-562 leukemia): > 100 µM
- TGI (MOLT-4 leukemia): > 100 µM
- TGI (EKVX NSCLC): > 100 µM
- TGI (M14 melanoma): > 100 µM
- TGI (HCT-15 colon): > 100 µM
- TGI (DMS 273 small cell lung): > 100 µM
- TGI (SK-MEL-5 melanoma): > 100 µM
- TGI (COLO 205 colon): > 100 µM
- TGI (SR leukemia): > 100 µM
- TGI (DMS 114 small cell lung): > 100 µM
- TGI (SNB-19 CNS): > 100 µM
- TGI (A549 NSCLC): > 100 µM
- TGI (U251 CNS): > 100 µM
- TGI (DLD-1 colon): > 100 µM
- TGI (OVCAR-5 ovarian): > 100 µM
- TGI (SF-539 CNS): > 100 µM
- TGI (RPMI-8226 leukemia): > 100 µM
- TGI (NCI-H226 lung): > 100 µM
- TGI (A498 renal): > 100 µM
- TGI (OVCAR-8 ovarian): > 100 µM
- TGI (SK-MEL-2 melanoma): > 100 µM
- TGI (SF-268 CNS): > 100 µM
- TGI (SK-OV-3 ovarian): > 100 µM
- TGI (TK-10 renal): > 100 µM
- TGI (HT29 colon): > 100 µM
- TGI (SF-295 CNS): > 100 µM
- TGI (MALME-3M melanoma): > 100 µM
- TGI (SNB-75 CNS): 88.1 µM
- TGI (HL-60(TB) leukemia): > 100 µM
- TGI (UO-31 renal): > 100 µM
- TGI (NCI-H460 lung): > 100 µM
- TGI (LOX IMVI melanoma): > 100 µM
- TGI (SN12C renal): > 100 µM
- TGI (UACC-62 melanoma): > 100 µM
- TGI (RXF 393 renal): > 100 µM
- TGI (OVCAR-4 ovarian): > 100 µM
- TGI (HOP-18 NSCLC): > 100 µM
- TGI (UACC-257 melanoma): > 100 µM
- TGI (CCRF-CEM leukemia): > 100 µM
- TGI (KM20L2 colon): > 100 µM
- TGI (NCI-H23 lung): > 100 µM
- TGI (HOP-92 NSCLC): > 100 µM
- TGI (SNB-78 CNS): > 100 µM
- TGI (M19-MEL melanoma): > 100 µM
- TGI (NCI-H522 lung): > 100 µM
- TGI (HOP-62 NSCLC): > 100 µM
- TGI (LXFL 529 NSCLC): > 100 µM

Compound: O=C(Nc1nc2ccc([N+](=O)[O-])cc2s1)C(=O)C(C(=O)c1ccccc1F)C1OC(=O)c2ccccc21 (configuration not stated)
- TGI (IGROV1 ovarian): > 100 µM
- TGI (HCT-116 colon): > 100 µM
- TGI (SW-620 colon): > 100 µM
- TGI (HCC-2998 colon): 84.2 µM
- TGI (KM12 colon): > 100 µM
- TGI (SK-MEL-28 melanoma): > 100 µM
- TGI (CAKI-1 renal): 98.5 µM
- TGI (K-562 leukemia): > 100 µM
- TGI (MOLT-4 leukemia): > 100 µM
- TGI (EKVX NSCLC): 73.4 µM
- TGI (M14 melanoma): > 100 µM
- TGI (HCT-15 colon): > 100 µM
- TGI (DMS 273 small cell lung): > 100 µM
- TGI (SK-MEL-5 melanoma): > 100 µM
- TGI (COLO 205 colon): 62.4 µM
- TGI (SR leukemia): 54.2 µM
- TGI (DMS 114 small cell lung): 87.3 µM
- TGI (SNB-19 CNS): > 100 µM
- TGI (A549 NSCLC): > 100 µM
- TGI (U251 CNS): 41.3 µM
- TGI (DLD-1 colon): > 100 µM
- TGI (OVCAR-5 ovarian): > 100 µM
- TGI (SF-539 CNS): 48.3 µM
- TGI (RPMI-8226 leukemia): 70.6 µM
- TGI (ACHN renal): > 100 µM
- TGI (A498 renal): > 100 µM
- TGI (OVCAR-8 ovarian): > 100 µM
- TGI (SK-MEL-2 melanoma): > 100 µM
- TGI (SF-268 CNS): > 100 µM
- TGI (SK-OV-3 ovarian): 93.7 µM
- TGI (TK-10 renal): > 100 µM
- TGI (HT29 colon): > 100 µM
- TGI (SF-295 CNS): > 100 µM
- TGI (SNB-75 CNS): 74.5 µM
- TGI (HL-60(TB) leukemia): 51.2 µM
- TGI (UO-31 renal): > 100 µM
- TGI (NCI-H460 lung): > 100 µM
- TGI (LOX IMVI melanoma): > 100 µM
- TGI (SN12C renal): > 100 µM
- TGI (UACC-62 melanoma): > 100 µM
- TGI (XF 498 CNS): > 100 µM
- TGI (OVCAR-4 ovarian): > 100 µM
- TGI (UACC-257 melanoma): > 100 µM
- TGI (CCRF-CEM leukemia): 48.7 µM
- TGI (KM20L2 colon): > 100 µM
- TGI (NCI-H23 lung): > 100 µM
- TGI (HOP-92 NSCLC): > 100 µM
- TGI (SNB-78 CNS): > 100 µM
- TGI (M19-MEL melanoma): > 100 µM
- TGI (NCI-H522 lung): 51.8 µM
- TGI (HOP-62 NSCLC): > 100 µM
- TGI (LXFL 529 NSCLC): > 100 µM
